Where two headings read alike, the source gives them in different places.
System: HCV 1b-377-neo replicon cells
Assay: HCV replicon FRET assay
Type: cell-based
Details: Hepatitis C virus, read-out: Activity (EC50)
From the text: The HCV replicon cell line was isolated from colonies as described by Lohman, et. al. (Science 1999, 285, 110-113, expressly incorporated by reference in its entirety) and used for all experiments. The HCV replicon has the nucleic acid sequence set forth in EMBL Accession No.: AJ242652, the coding sequence of which is from nt 1801 to 7758.
The coding sequence of the published HCV replicon was synthesized by Operon Technologies, Inc. (Alameda, Calif.), and the fall-length replicon was then assembled in plasmid pGem9zf(+) (Promega, Madison, Wis.) using standard molecular biology techniques. The replicon consists of (i) the HCV 5′ UTR fused to the first 12 amino acids of the capsid protein, (ii) the neomycin phosphotransferase gene (neo), (iii) the IRES from encephalomyocarditis virus (EMCV), and (iv) HCV NS3 to NS5B genes and the HCV 3′ UTR. Plasmid DNAs were linearized with ScaI and RNA transcripts were synthesized in vitro using the T7 MegaScript transcription kit (Ambion, Austin, Tex.) according to manufacturer's directions.
To generate cell lines, 4×10^6 Huh-7 cells (kindly provided by R. Bartenschlager and available from Health Science Research Resources Bank, Japan Health Sciences Foundation) were electroporated (GenePulser System, Bio-Rad) with 10 micrograms(“μg”) of RNA transcript and plated into 100-mm dishes. After 24 hours, selective media containing 1.0 milligrams/milliliter (“mg/mL”) G418 was added and media was changed every 3 to 5 days. […] These cell lines were maintained at 37° C., 5% CO2, 100% relative humidity in DMEM (Cat#11965-084) Gibco-BRL, Rockville, Md., with 10% heat inactivated calf serum (Sigma), 10 mL of 100× penicillin/streptomycin (Cat#15140-122) Gibco-BRL, Rockville, Md., Geneticin (Cat#10131-027) Gibco-BRL, Rockville, Md. at 1 mg/mL. One of the cell lines (deposited as ATCC Accession No. PTA-4583 in the American Type Culture Collection) which had approximately 3,000 copies of HCV replicon RNA/cell was used for development of the assay (HCV 1b-377-neo replicon cells).
To perform the HCV FRET screening assay, 96-well cell culture plates were used. The FRET peptide (Anaspec, Inc., San Jose, Calif.) (Taliani et al., Anal. Biochem. 1996, 240, 60-67, hereby incorporated by reference in its entirety) contains a fluorescence donor, EDANS, near one end of the peptide and an acceptor, DABCYL, near the other end. The fluorescence of the peptide is quenched by […] resonance energy transfer (RET) between the donor and the acceptor, but as the NS3 protease cleaves the peptide the products are released from RET quenching and the fluorescence of the donor becomes apparent.
The assay reagent was made as follows: 5X luciferase cell culture lysis (Cat#E153A, Promega, Madison, Wis.) diluted to 1X with dH2O, NaCl added to […] final, the FRET peptide diluted to 20 micromolar (“μM”) final from a 2 mM stock. HCV 1b-377-neo replicon cells were trypsinized, placed into each well of a 96-well plate and allowed to attach overnight. The next day, the test compounds were added to columns 1 through 10; column 11 was media plus DMSO only, and column 12 contained a titration of interferon or an HCV specific inhibitor as a control (1000 units for A12, B12, 100 units for C12, D12, 10 units for E12, F12 and 1 unit for G12, H12). […] In addition, naïve Huh-7 cells could also be used to replace wells A12 and B12 as a background control.
At subsequent various times (typically 72 hours), 10% final volume Alamar blue (Cat#00-100, Trek Diagnostics, Cleveland, Ohio) was added to each well. The plates were returned to the incubator for 5 hours and then read in the Cytoflour (PE Biosystems) to determine Alamar blue conversion in each well as a measure of cellular toxicity.

Structure (SMILES) | EC50 (HCV replicon) | EC50
O=C(Nc1ccc(/C=C/c2ccc(NC(=O)[C@@H]3CCCN3C(=O)c3ccccc3Oc3ccccc3)cc2)cc1)[C@@H]1CCCN1C(=O)c1ccccc1Oc1ccccc1 [Example 147] | 100 to 1000 nM | 
O=C(Nc1ccc(/C=C/c2ccc(NC(=O)[C@@H]3CCCN3C(=O)[C@@H]3CCCO3)cc2)cc1)[C@@H]1CCCN1C(=O)[C@@H]1CCCO1 [Example 111] | 100 to 1000 nM | 
O=C(Nc1ccc(/C=C/c2ccc(NC(=O)[C@@H]3C[C@H](O)CN3C(=O)OCc3ccccc3)cc2)cc1)[C@@H]1C[C@H](O)CN1C(=O)OCc1ccccc1 [Example 7] | 0.1 to 90 nM | 
CCc1ccccc1C(=O)Nc1ccc(/C=C/c2ccc(NC(=O)[C@@H]3CCCN3C(=O)Cc3ccccc3)cc2)cc1 [Example 265] | 100 to 1000 nM | 
COc1cccc(CC(=O)N2CCC[C@H]2C(=O)Nc2ccc(/C=C/c3ccc(NC(=O)[C@@H]4CCCN4C(=O)Cc4cccc(OC)c4)cc3)cc2)c1 [Example 25] | 100 to 1000 nM | 
Cc1cc(CC(=O)N2CCC[C@H]2C(=O)Nc2ccc(/C=C/c3ccc(NC(=O)[C@@H]4CCCN4C(=O)CN(C)C)cc3)cc2)on1 [Example 97] | 0.1 to 90 nM | 
CC(=O)N1CC=C[C@H]1C(=O)Nc1ccc(/C=C/c2ccc(NC(=O)[C@@H]3C=CCN3C(C)=O)cc2)cc1 [Example 217] | 0.1 to 90 nM | 
CN(C)[C@H]1C[C@@H](C(=O)Nc2ccc(/C=C/c3ccc(NC(=O)[C@@H]4C[C@H](N(C)C)CN4C(=O)OCc4ccccc4)cc3)cc2)N(C(=O)OCc2ccccc2)C1 [Example 223] | 0.1 to 90 nM | 
CSCC(=O)N1CCC[C@H]1C(=O)Nc1ccc(/C=C/c2ccc(NC(=O)[C@@H]3CCCN3C(=O)Cc3cccs3)cc2)cc1 [Example 99] | 0.1 to 90 nM | 
O=C(Nc1ccc(/C=C/c2ccc(NC(=O)[C@@H]3CCCN3C(=O)C3CCC3)cc2)cc1)[C@@H]1CCCN1C(=O)c1cccnc1 [Example 88] | 0.1 to 90 nM | 
O=C(Nc1ccc(/C=C/c2ccc(NC(=O)[C@@H]3CCCN3S(=O)(=O)Cc3cccc(C(F)(F)F)c3)cc2)cc1)[C@@H]1CCCN1S(=O)(=O)Cc1cccc(C(F)(F)F)c1 [Example 283] | 1000 to 10000 nM | 
CCOc1ccccc1CC(=O)N1CCC[C@H]1C(=O)Nc1ccc(/C=C/c2ccc(NC(=O)[C@@H]3CCCN3C(=O)Cc3ccccc3OCC)cc2)cc1 [Example 173] | 1000 to 10000 nM | 
CC(C)(C)OC(=O)N1CCC[C@H]1C(=O)Nc1ccc(/C=C/c2ccc(NC(=O)[C@@H]3CCCN3)cc2)cc1 [Example 22] | 1000 to 10000 nM | 
Cc1cccc(-n2cnc(C(=O)N3CCC[C@H]3C(=O)Nc3ccc(/C=C/c4ccc(NC(=O)[C@@H]5CCCN5C(=O)c5cn(-c6cccc(C)n6)cn5)cc4)cc3)c2)n1 [Example 213] | 1000 to 10000 nM | 
O=C(Nc1ccc(/C=C/c2ccc(NC(=O)[C@@H]3CCCN3C(=O)Cc3ccccc3)cc2)cc1)c1ccccc1 [Example 264] | 0.1 to 90 nM | 
O=C(Nc1ccc(/C=C/c2ccc(NC(=O)[C@@H]3CCCN3C(=O)C3CC(=O)N(Cc4cccs4)C3)cc2)cc1)[C@@H]1CCCN1C(=O)C1CC(=O)N(Cc2cccs2)C1 (some centres unmarked) [Example 154] | 1000 to 10000 nM | 
O=C(Nc1ccc(/C=C/c2ccc(NC(=O)C3CC(=O)N(Cc4cccs4)C3)cc2)cc1)C1CC(=O)N(Cc2cccs2)C1 (centres unmarked) [Example 13] | 1000 to 10000 nM | 
Cc1nocc1C(=O)N1CCC[C@H]1C(=O)Nc1ccc(/C=C/c2ccc(NC(=O)[C@@H]3CCCN3C(=O)c3conc3C)cc2)cc1 [Example 201] | 0.1 to 90 nM | 
CCC(=O)N1CC=C[C@H]1C(=O)Nc1ccc(/C=C/c2ccc(NC(=O)[C@@H]3C=CCN3C(=O)CC)cc2)cc1 [Example 71] | 100 to 1000 nM | 

Structure (SMILES) | EC50 (HCV replicon) | EC50
CCCc1c(C(=O)N2CCC[C@H]2C(=O)Nc2ccc(/C=C/c3ccc(NC(=O)[C@@H]4CCCN4C(=O)c4cnn(-c5ccccc5)c4CCC)cc3)cc2)cnn1-c1ccccc1 [Example 175] | 1000 to 10000 nM | 
O=C(Nc1ccc(/C=C/c2ccc(NC(=O)[C@@H]3CCCN3C(=O)c3ccccc3NCc3ccccn3)cc2)cc1)[C@@H]1CCCN1C(=O)c1ccccc1NCc1ccccn1 [Example 161] | 1000 to 10000 nM | 
O=C(Nc1ccc(/C=C/c2ccc(NC(=O)[C@@H]3CCCN3C(=O)Cc3c[nH]cn3)cc2)cc1)[C@@H]1CCCN1C(=O)Cc1c[nH]cn1 [Example 42] | 1000 to 10000 nM | 
O=C(Nc1ccc(/C=C/c2ccc(NC(=O)[C@@H]3CCCN3C(=O)c3ccccc3-n3cccc3)cc2)cc1)[C@@H]1CCCN1C(=O)c1ccccc1-n1cccc1 [Example 137] | 1000 to 10000 nM | 
Cn1cncc1C(=O)N1CCC[C@H]1C(=O)Nc1ccc(/C=C/c2ccc(NC(=O)[C@@H]3CCCN3C(=O)c3cncn3C)cc2)cc1 [Example 211] | 0.1 to 90 nM | 
O=C(Nc1ccc(/C=C/c2ccc(NC(=O)[C@@H]3CCCN3C(=O)c3nccn3Cc3ccccc3)cc2)cc1)[C@@H]1CCCN1C(=O)c1nccn1Cc1ccccc1 [Example 179] | 1000 to 10000 nM | 
CC(C)(C)O[C@@H]1C[C@@H](C(=O)Nc2ccc(/C=C/c3ccc(NC(=O)[C@@H]4C[C@@H](OC(C)(C)C)CN4C(=O)OCc4ccccc4)cc3)cc2)N(C(=O)OCc2ccccc2)C1 [Example 294] | 100 to 1000 nM | 
CN(C)[C@H]1C[C@@H](C(=O)Nc2ccc(/C=C/c3ccc(NC(=O)[C@@H]4C[C@H](N(C)C)CN4C(=O)c4ccccc4NCc4ccccc4)cc3)cc2)N(C(=O)c2ccccc2NCc2ccccc2)C1 [Example 229] | 1000 to 10000 nM | 
CC(C)C(=O)N1CCC[C@H]1C(=O)Nc1ccc(/C=C/c2ccc(NC(=O)[C@@H]3CCCN3C(=O)c3cccnc3)cc2)cc1 [Example 89] | 0.1 to 90 nM | 
CC(=O)N1C[C@H](OC(C)(C)C)C[C@H]1C(=O)Nc1ccc(/C=C/c2ccc(NC(=O)[C@@H]3C[C@@H](OC(C)(C)C)CN3C(=O)[C@H]3CCCO3)cc2)cc1 [Example 129] | 100 to 1000 nM | 
Cn1cccc1CC(=O)N1CCC[C@H]1C(=O)Nc1ccc(/C=C/c2ccc(NC(=O)[C@@H]3CCCN3C(=O)Cc3cccn3C)cc2)cc1 [Example 105] | 0.1 to 90 nM | 
O=C(Nc1ccc(/C=C/c2ccc(NC(=O)[C@@H]3CCCN3C(=O)c3cccnc3Cl)cc2)cc1)[C@@H]1CCCN1C(=O)c1cccnc1Cl [Example 191] | 1000 to 10000 nM | 
CO[C@@H]1C[C@@H](C(=O)Nc2ccc(/C=C/c3ccc(NC(=O)[C@@H]4C[C@H](OC)CN4C(=O)OCc4ccccc4)cc3)cc2)N(C(=O)OCc2ccccc2)C1 [Example 15] | 0.1 to 90 nM | 
CC(C)(C)OC(=O)Nc1ccccc1C(=O)N1CCC[C@H]1C(=O)Nc1ccc(/C=C/c2ccc(NC(=O)[C@@H]3CCCN3C(=O)c3ccccc3NC(=O)OC(C)(C)C)cc2)cc1 [Example 150] |  | 1000 to 10000 nM
CCC(C)NC(=O)O[C@@H]1C[C@@H](C(=O)Nc2ccc(/C=C/c3ccc(NC(=O)[C@@H]4C[C@@H](O)CN4C(=O)OCc4ccccc4)cc3)cc2)N(C(=O)OCc2ccccc2)C1 (some centres unmarked) [Example 245] | 1000 to 10000 nM | 
CCn1nc(C)cc1C(=O)N1CCC[C@H]1C(=O)Nc1ccc(/C=C/c2ccc(NC(=O)[C@@H]3CCCN3C(=O)c3cc(C)nn3CC)cc2)cc1 [Example 155] | 0.1 to 90 nM | 
CN(Cc1ccccc1)c1ccccc1C(=O)N1CCC[C@H]1C(=O)Nc1ccc(/C=C/c2ccc(NC(=O)[C@@H]3CCCN3C(=O)c3ccccc3N(C)Cc3ccccc3)cc2)cc1 [Example 162] | 1000 to 10000 nM | 
COc1ccc(OC)c(C(=O)N2CCC[C@H]2C(=O)Nc2ccc(/C=C/c3ccc(NC(=O)[C@@H]4CCCN4C(=O)c4cc(OC)ccc4OC)cc3)cc2)c1 [Example 145] | 100 to 1000 nM | 
CC(C)(C)O[C@@H]1C[C@@H](C(=O)Nc2ccc(/C=C/c3ccc(NC(=O)C4CC4)cc3)cc2)N(C(=O)OCc2ccccc2)C1 [Example 259] | 100 to 1000 nM | 
